Measured values published in patent US12295396B2, “Antagonists of T2R54 and compositions and uses thereof” (Firmenich Incorporated, priority 2018, dated 2025).
Read-outs that look alike come from different tables or passages of the source.

Target: T1, hT2R54 (Homo sapiens, UniProt P59534)
T1 construct: expressed in transfected cells; it overexpresses a promiscuous G protein
T1 sequence (P59534 1-338): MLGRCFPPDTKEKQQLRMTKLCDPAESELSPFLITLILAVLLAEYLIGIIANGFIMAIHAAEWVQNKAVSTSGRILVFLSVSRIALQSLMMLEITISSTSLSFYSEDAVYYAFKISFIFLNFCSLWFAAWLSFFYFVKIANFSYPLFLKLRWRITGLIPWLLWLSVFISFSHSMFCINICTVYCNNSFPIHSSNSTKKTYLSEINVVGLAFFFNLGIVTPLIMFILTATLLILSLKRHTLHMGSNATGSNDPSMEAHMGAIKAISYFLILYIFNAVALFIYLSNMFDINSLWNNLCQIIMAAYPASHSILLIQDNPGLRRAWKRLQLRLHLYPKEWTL
Assay: Cell-based assay for measuring hT2R54 inhibition (FLIPR calcium, Fluo4AM, acetaminophen as bitter agonist)
Conditions: read-out: hT2R54 IC50
Method in brief: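 The readout was FLIPR calcium (Fluo4AM, 10 s baseline, 3 min post-addition) in cells stably carrying hT2R54 plus a promiscuous G protein, with host cells lacking hT2R54 as counter-control. Acetaminophen concentration series were tested with and without set test-compound levels. Half-maximal block of the agonist response gave the EC50/IC50.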

[1] = Table 2, cells stably expressing hT2R54 and a promiscuous G protein
[2] = Table 4, cells stably expressing hT2R54 and a promiscuous G protein
[3] = Table 5, cells stably expressing hT2R54 and a promiscuous G protein
[4] = Table 6, cells stably expressing hT2R54 and a promiscuous G protein
[5] = Table 3, cells stably expressing hT2R54 and a promiscuous G protein

Row | SMILES | IC50 [1] [nM] | other results
1 | CC(=O)c1cc2c(cc1NC(=O)C(C)(C)N1CCN(C(=O)C3CCCO3)CC1)OCO2 (centres unmarked) [compound 319] | 1000 | –
2 | CC(=O)c1cc2c(cc1NC(=O)CN1CCN(C(=O)[C@H]3CCC(=O)O3)CC1)OCCO2 [compound 335] | 50 | –
3 | CC(=O)c1cc2c(cc1NC(=O)CN1CCC(NC(=O)OC(C)(C)C)CC1)OCO2 [compound 430] | – | IC50 [2]: 162 nM
4 | CC(=O)c1cc2c(cc1NC(=O)CN(C)CCC(=O)N(C)C)OCO2 [compound 134] | – | IC50 [2]: 960 nM
5 | CC(=O)c1cc2c(cc1NC(=O)CN(C)C1CCN(C(=O)CC(C)C)CC1)OCO2 [compound 184, N-(6-Acetylbenzo[d][1,3]dioxol-5-yl)-2-(methyl(1-(3-methylbutanoyl)piperidin-4-yl)amino)acetamide] | – | IC50 (Table 7, cells stably expressing hT2R54 and a promiscuous G protein): 98 nM
6 | COc1ccc(OC)c(CC(=O)Nc2cc3c(cc2C(C)=O)OCO3)c1 [compound 279] | – | IC50 (Table 9): 1470 nM
7 | COc1cc2c(cc1NC(=O)CN1CCOCC1)OCO2 [compound 143] | – | IC50 [2]: 142 nM
8 | COc1cc2c(cc1NC(=O)CN1CCN(C(=O)c3ncoc3C)CC1)OCO2 [compound 362] | 567 | –
9 | CC(=O)c1cc2c(cc1NC(=O)CC1CCN(C(=O)C3CCCCO3)CC1)OCO2 (centres unmarked) [compound 243] | – | IC50 (Table 8): 96 nM
10 | COc1cc2c(cc1NC(=O)CN1CCCC(C(=O)NCc3ccccc3)C1)OCO2 (centres unmarked) [compound 452] | – | IC50 [3]: 603 nM
11 | CC(=O)c1cc2c(cc1NC(=O)CC1CCN(C(=O)c3cc[nH]n3)CC1)OCO2 [compound 461] | – | IC50 (Table 8): 150 nM
12 | COc1cc2c(cc1NC(=O)CN1CCN(C(=O)c3c[nH]c(C)n3)CC1)OCO2 [compound 392] | 1300 | –
13 | CC(=O)c1cc2c(cc1NC(=O)CC1CCN(C(C)=O)C1)OCO2 (centres unmarked) [compound 258] | – | IC50 (Table 8): 928 nM
14 | CC(=O)c1cc2c(cc1NC(=O)CN1CCC(NC(=O)c3cccs3)CC1)OCO2 [compound 173] | – | IC50 [4]: 110 nM
15 | CC(=O)c1cc2c(cc1NC(=O)CN1CCN(C(=O)c3ncn[nH]3)CC1)OCCO2 [compound 328] | 60 | –
16 | CCCOC(=O)N1CCN(CC(=O)Nc2cc3c(cc2OC)OCO3)CC1 [compound 84] | 240 | –
17 | CC(=O)c1cc2c(cc1NC(=O)CN1CCC(CNC(=O)CC(C)C)CC1)OCO2 [compound 170] | – | IC50 [4]: 188 nM
18 | CC(=O)c1cc2c(cc1NC(=O)CNC1CCN(C(=O)CC(C)C)CC1)OCO2 [compound 177] | – | IC50 [4]: 200 nM
19 | CCOC(=O)C1CCC(N(C)CC(=O)Nc2cc3c(cc2C(C)=O)OCO3)CC1 (centres unmarked) [compound 141] | – | IC50 [2]: 168 nM
20 | CC(=O)c1cc2c(cc1NC(=O)C(C)(C)N1CCOCC1)OCO2 [compound 111, N-(6-Acetylbenzo[d][1,3]dioxol-5-yl)-2-methyl-2-morpholinopropanamide] | – | IC50 [2]: 207 nM
21 | COc1cc2c(cc1NC(=O)CN1CCN(C(C)=O)CC1)CCC2 [compound 410] | 1140 | –
22 | CC(=O)c1cc2c(cc1NC(=O)CCN1CCOCC1)OCO2 [compound 432] | – | IC50 [2]: 1920 nM
23 | CC(=O)c1cc2c(cc1NC(=O)CN1CCCC(NC(=O)OC(C)(C)C)C1)OCO2 (centres unmarked) [compound 429] | – | IC50 [2]: 1280 nM
24 | CC(=O)c1cc2c(cc1NC(=O)CN1CCN(C(=O)Cc3cccc(F)c3)CC1)OCO2 [compound 59] | 200 | –
25 | COc1cc2c(cc1NC(=O)CN1CCN(C(=O)c3ccc(CO)o3)CC1)OCO2 [compound 398] | 630 | –
26 | CC(=O)c1cc2c(cc1NC(=O)CN1CCN(Cc3nc4ccccc4s3)CC1)OCO2 [compound 107] | – | IC50 [5]: 4180 nM

Row | SMILES | IC50 [1] [nM] | other results
27 | CCOC(=O)[C@@H]1CCCN1CC(=O)Nc1cc2c(cc1C(C)=O)OCO2 [compound 112, Ethyl (2-((6-acetylbenzo[d][1,3]dioxol-5-yl)amino)-2-oxoethyl)-L-prolinate] | – | IC50 [2]: 206 nM
28 | CCc1cc2c(cc1NC(=O)CN1CCN(C(=O)C3CCCO3)CC1)OCO2 (centres unmarked) [compound 414] | 7600 | –
29 | COCc1ccc(C(=O)N2CCCC(CC(=O)Nc3cc4c(cc3C(C)=O)OCO4)C2)o1 (centres unmarked) [compound 228] | – | IC50 (Table 8): 20 nM
30 | COc1cc2c(cc1NC(=O)CC1CCN(C(=O)Cc3ccco3)CC1)OCO2 [compound 498] | – | IC50 (Table 8): > 10000 nM
31 | COc1cc2c(cc1NC(=O)CN1CCN(C(=O)c3ncn[nH]3)CC1)OCO2 [compound 399] | 1400 | –
32 | CC(=O)c1cc2c(cc1NC(=O)CC1CCN(C(=O)c3n[nH]cc3C)CC1)OCO2 [compound 464] | – | IC50 (Table 8): 200 nM
33 | COc1cc2c(cc1NC(=O)CN1CCN(C(=O)C3CCOC3)CC1)OCO2 (centres unmarked) [compound 406] | 1800 | –
34 | CC(=O)c1cc2c(cc1NC(=O)CC1CCCN(C(=O)C3CCOC3)C1)OCO2 (centres unmarked) [compound 210] | – | IC50 (Table 8): 1340 nM
35 | COCc1cc(C(=O)N2CCN(CC(=O)Nc3cc4c(cc3OC)OCO4)CC2)no1 [compound 397] | 770 | –
36 | CCOC(=O)C1CCCN(CC(=O)Nc2cc3c(cc2OC)OCO3)C1 (centres unmarked) [compound 117, Ethyl 1-(2-((6-Methoxybenzo[d][1,3]dioxol-5-yl)amino)-2-oxoethyl)piperidine-3-carboxylate] | – | IC50 [2]: 188 nM
37 | COC(=O)c1cc2c(cc1NC(=O)CN1CCOCC1)CCCC2 [compound 439] | – | IC50 [2]: ~2000 nM
38 | CC(=O)c1cc2c(cc1NC(=O)CN1CCOCC1)OCCO2 [compound 152] | – | IC50 [2]: 630 nM
39 | CCS(=O)(=O)N1CCCC(CC(=O)Nc2cc3c(cc2C(C)=O)OCO3)C1 (centres unmarked) [compound 223] | – | IC50 (Table 8): 40 nM
40 | CC(=O)c1cc2c(cc1NC(=O)CN1CCN(C(C(N)=O)c3ccccc3)CC1)OCO2 (centres unmarked) [compound 108] | – | IC50 [5]: 1760 nM
41 | CCC(=O)N1CCC(CC(=O)Nc2cc3c(cc2C(C)=O)OCO3)C1 (centres unmarked) [compound 259] | – | IC50 (Table 8): 2600 nM
42 | COC(=O)c1cc2c(cc1NC(=O)CC1CCCN(C(C)=O)C1)OCO2 (centres unmarked) [compound 480] | – | IC50 (Table 8): 1400 nM
43 | COc1ccc(CC(=O)N2CCN(CC(=O)Nc3cc4c(cc3OC)OCO4)CC2)cc1 [compound 375] | 1000 | –
44 | CCS(=O)(=O)N1CCCC(CC(=O)Nc2cc3c(cc2OC)OCO3)C1 (centres unmarked) [compound 515] | – | IC50 (Table 8): 500 nM
45 | COCc1nc(C(=O)N2CCN(CC(=O)Nc3cc4c(cc3OC)OCO4)CC2)co1 [compound 361] | 546 | –
46 | CC(=O)c1cc2c(cc1NC(=O)CC1CCN(C(=O)c3nc(C)c[nH]3)CC1)OCO2 [compound 465] | – | IC50 (Table 8): 46 nM
47 | CC(=O)c1cc2c(cc1NC(=O)CC1CCCN(C(=O)c3cccc(O)c3)C1)OCO2 (centres unmarked) [compound 218] | – | IC50 (Table 8): > 1000 nM
48 | CC(=O)c1cc2c(cc1NC(=O)CN1CCC(O)CC1)OCO2 [compound 120] | – | IC50 [2]: < 10 nM
49 | CC(=O)c1cc2c(cc1NC(=O)C(C)N1CCN(C(C)=O)CC1)OCCO2 (centres unmarked) [compound 337] | 60 | –
50 | CNC(=O)C1CCCCN1CC(=O)Nc1cc2c(cc1C(C)=O)OCO2 (centres unmarked) [compound 160] | – | IC50 [3]: 1270 nM
51 | CC(=O)c1cc2c(cc1NC(=O)CC1CCN(C(=O)CC(C)(C)C)C1)OCO2 (centres unmarked) [compound 264] | – | IC50 (Table 8): 381 nM

Further lines, with some results ahead:

Row | IC50 [1] [nM] | SMILES | other results
52 | 70 | CC(=O)c1cc2c(cc1NC(=O)CN1CCN(C(=O)c3ccncc3)CC1)OCO2 [compound 39] | –
53 | 90 | CC(=O)c1cc2c(cc1NC(=O)CN1CCN(C(C)=O)CC1)OCO2 [compound 7] | –
54 | 700 | COc1cc2c(cc1NC(=O)CN1CCN(C(=O)c3cc[nH]n3)CC1)OCO2 [compound 385] | –
55 | 9 | CC(=O)c1cc2c(cc1NC(=O)CN1CCN(C(=O)c3nc(C)c[nH]3)CC1)OCO2 [compound 308] | –
56 | 60 | CC(=O)c1cc2c(cc1NC(=O)CN1CCN(C(=O)c3c[nH]nn3)CC1)OCO2 [compound 303] | –
57 | 800 | COc1cc2c(cc1NC(=O)CN1CCN(C(=O)c3ccc(O)cc3)CC1)OCO2 [compound 380] | –
58 | 49 | CCc1oc(C(=O)N2CCN(CC(=O)Nc3cc4c(cc3C(C)=O)OCO4)CC2)cc1COC [compound 291] | –
59 | 45 | COCc1ccc(C(=O)N2CCN(CC(=O)Nc3cc4c(cc3C(C)=O)OCCO4)CC2)cc1 [compound 325] | –
60 | 166 | COC(=O)c1cc2c(cc1NC(=O)CN1CCN(C(C)=O)CC1)OCO2 [compound 348] | –
61 | 30 | CC(=O)c1cc2c(cc1NC(=O)CN1CCN(C(=O)c3ccoc3)CC1)OCO2 [compound 79] | –
62 | 216 | CC(=O)c1cc2c(cc1NC(=O)CN1CCN(C(=O)CO)CC1)OCO2 [compound 18] | –
63 | 70 | CC(=O)c1cc2c(cc1NC(=O)CN1CCN(C(=O)c3ccncc3)CC1)OCCO2 [compound 327] | –
64 | 50 | CC(=O)c1cc2c(cc1NC(=O)CN1CCN(C(C)=O)CC1)OCCO2 [compound 336] | –
65 | 40 | COc1ccccc1C(=O)N1CCN(CC(=O)Nc2cc3c(cc2C(C)=O)OCO3)CC1 [compound 41] | –
66 | 200 | COc1cc2c(cc1NC(=O)CN1CCN(C(=O)c3ccccc3F)CC1)OCO2 [compound 90] | –
67 | 70 | COCc1cc(C(=O)N2CCN(CC(=O)Nc3cc4c(cc3C(C)=O)OCO4)CC2)no1 [compound 294] | –
68 | 30 | CC(=O)c1cc2c(cc1NC(=O)CN1CCN(C(=O)c3csnn3)CC1)OCO2 [compound 284] | –
69 | 234 | COCc1cccc(C(=O)N2CCN(CC(=O)Nc3cc4c(cc3C(C)=O)OCO4)CC2)c1 [compound 51] | –
70 | 30 | CC(=O)c1cc2c(cc1NC(=O)CN1CCN(C(=O)c3sccc3C)CC1)OCO2 [compound 68] | –
71 | 40 | CC(=O)c1cc2c(cc1NC(=O)CN1CCN(C(=O)c3cccs3)CC1)OCO2 [compound 35] | –
